# Experimental data reported in patent publication US20240041991A1, “STABLE LIQUID DISPERSINB COMPOSITIONS” (KANE BIOTECH INC., priority 2020, published 2024).
# Like-named read-outs stand apart in the source and are kept apart here. Marks after values point to notes of the source that are not given here.
# Test system: DispersinB
# Assay type: biochemical, Aggregatibacter actinomycetemcomitans
# Conditions: for % enzymatic activity of DispersinB (Mean): polyol % as in label; for temperature stabilizing effect on DispersinB at elevated temperatures: 42° C., 52° C., and 62° C.
# Description: Samples from each formula was incubated at 3 different temperatures (42° C., 52° C. and 62° C.) for 3 hours. Following a 3 hour incubation, the samples were brought to room temperature for enzymatic activity assay.
# Two-tailed paired T-test was performed by to compare each polyol containing treatment with the treatment devoid of polyol. Treatment with probability values (p) less than 5% (0.05) was considered significant.
smiles,measurement,setting,value
"O[C@H]1[C@H](O)[C@@H](O)[C@H](O)[C@@H](O)[C@H]1O [inositol, Inositol]",% enzymatic activity of DispersinB (Mean),"4° C., freshly made control without polyol = 100%, listed as 0.25% Inositol",104%
same,% enzymatic activity of DispersinB (Mean),"4° C., freshly made control without polyol = 100%, listed as 0.5% Inositol",101%
same,% enzymatic activity of DispersinB (Mean),"4° C., freshly made control without polyol = 100%, listed as 1% Inositol",101%
same,% enzymatic activity of DispersinB (Mean),"4° C., freshly made control without polyol = 100%, listed as 2% Inositol",102%
same,% enzymatic activity of DispersinB (Mean),"4° C., freshly made control without polyol = 100%, listed as 4% Inositol",107* %
same,% enzymatic activity of DispersinB (Mean),"4° C., freshly made control without polyol = 100%, listed as 6% Inositol",112* %
same,% enzymatic activity of DispersinB (Mean),"4° C., freshly made control without polyol = 100%, listed as 8% Inositol",118* %
same,% enzymatic activity of DispersinB (Mean),"4° C., freshly made control without polyol = 100%, listed as 10% Inositol",115* %
same,% enzymatic activity of DispersinB (Mean),"4° C., freshly made control without polyol = 100%, listed as 12% Inositol",118* %
same,% enzymatic activity of DispersinB (Mean),"4° C., freshly made control without polyol = 100%, listed as 14% Inositol",124* %
same,% enzymatic activity of DispersinB (Mean),"42° C. for 3 hours, control without polyol = 100%, listed as 0.25% Inositol",96* %
same,% enzymatic activity of DispersinB (Mean),"42° C. for 3 hours, control without polyol = 100%, listed as 0.5% Inositol",97* %
same,% enzymatic activity of DispersinB (Mean),"42° C. for 3 hours, control without polyol = 100%, listed as 1% Inositol",99* %
same,% enzymatic activity of DispersinB (Mean),"42° C. for 3 hours, control without polyol = 100%, listed as 2% Inositol",101* %
same,% enzymatic activity of DispersinB (Mean),"42° C. for 3 hours, control without polyol = 100%, listed as 4% Inositol",106* %
same,% enzymatic activity of DispersinB (Mean),"42° C. for 3 hours, control without polyol = 100%, listed as 6% Inositol",112* %
same,% enzymatic activity of DispersinB (Mean),"42° C. for 3 hours, control without polyol = 100%, listed as 8% Inositol",126* %
same,% enzymatic activity of DispersinB (Mean),"42° C. for 3 hours, control without polyol = 100%, listed as 10% Inositol",113* %
same,% enzymatic activity of DispersinB (Mean),"42° C. for 3 hours, control without polyol = 100%, listed as 12% Inositol",118* %
same,% enzymatic activity of DispersinB (Mean),"42° C. for 3 hours, control without polyol = 100%, listed as 14% Inositol",115%
same,temperature stabilizing effect on DispersinB at elevated temperatures,,exhibited temperature stabilizing effect
same,% enzymatic activity of DispersinB (Mean),"52° C. for 3 hours, control without polyol = 100%, listed as 0.5% Inositol",1* %
same,% enzymatic activity of DispersinB (Mean),"52° C. for 3 hours, control without polyol = 100%, listed as 1% Inositol",3* %
same,% enzymatic activity of DispersinB (Mean),"52° C. for 3 hours, control without polyol = 100%, listed as 2% Inositol",8* %
same,% enzymatic activity of DispersinB (Mean),"52° C. for 3 hours, control without polyol = 100%, listed as 4% Inositol",19* %
same,% enzymatic activity of DispersinB (Mean),"52° C. for 3 hours, control without polyol = 100%, listed as 6% Inositol",37* %
same,% enzymatic activity of DispersinB (Mean),"52° C. for 3 hours, control without polyol = 100%, listed as 8% Inositol",66* %
same,% enzymatic activity of DispersinB (Mean),"52° C. for 3 hours, control without polyol = 100%, listed as 10% Inositol",77* %
same,% enzymatic activity of DispersinB (Mean),"52° C. for 3 hours, control without polyol = 100%, listed as 12% Inositol",86* %
same,% enzymatic activity of DispersinB (Mean),"52° C. for 3 hours, control without polyol = 100%, listed as 14% Inositol",92* %
"OC[C@@H](O)[C@@H](O)[C@H](O)[C@@H](O)CO [sorbitol, (2S,3R,4R,5R)-Hexane-1,2,3,4,5,6-hexol]",% enzymatic activity of DispersinB (Mean),"4° C., freshly made control without polyol = 100%, listed as Sorbitol 1%",112* %
same,% enzymatic activity of DispersinB (Mean),"4° C., freshly made control without polyol = 100%, listed as Sorbitol 2.5%",107* %
same,% enzymatic activity of DispersinB (Mean),"4° C., freshly made control without polyol = 100%, listed as Sorbitol 5%",105* %
same,% enzymatic activity of DispersinB (Mean),"4° C., freshly made control without polyol = 100%, listed as Sorbitol 10%",107* %
same,% enzymatic activity of DispersinB (Mean),"4° C., freshly made control without polyol = 100%, listed as Sorbitol 20%",110* %
same,% enzymatic activity of DispersinB (Mean),"4° C., freshly made control without polyol = 100%, listed as Sorbitol 30%",113* %
same,% enzymatic activity of DispersinB (Mean),"42° C. for 3 hours, control without polyol = 100%, listed as Sorbitol 1%",80%
same,% enzymatic activity of DispersinB (Mean),"42° C. for 3 hours, control without polyol = 100%, listed as Sorbitol 2.5%",87%
same,% enzymatic activity of DispersinB (Mean),"42° C. for 3 hours, control without polyol = 100%, listed as Sorbitol 5%",89* %
same,% enzymatic activity of DispersinB (Mean),"42° C. for 3 hours, control without polyol = 100%, listed as Sorbitol 10%",88* %
same,% enzymatic activity of DispersinB (Mean),"42° C. for 3 hours, control without polyol = 100%, listed as Sorbitol 20%",88* %
same,% enzymatic activity of DispersinB (Mean),"42° C. for 3 hours, control without polyol = 100%, listed as Sorbitol 30%",101* %
same,temperature stabilizing effect on DispersinB at elevated temperatures,,exhibited temperature stabilizing effect
same,% enzymatic activity of DispersinB (Mean),"52° C. for 3 hours, control without polyol = 100%, listed as Sorbitol 1%",6* %
same,% enzymatic activity of DispersinB (Mean),"52° C. for 3 hours, control without polyol = 100%, listed as Sorbitol 2.5%",21* %
same,% enzymatic activity of DispersinB (Mean),"52° C. for 3 hours, control without polyol = 100%, listed as Sorbitol 5%",46* %
same,% enzymatic activity of DispersinB (Mean),"52° C. for 3 hours, control without polyol = 100%, listed as Sorbitol 10%",82* %
same,% enzymatic activity of DispersinB (Mean),"52° C. for 3 hours, control without polyol = 100%, listed as Sorbitol 20%",94* %
same,% enzymatic activity of DispersinB (Mean),"52° C. for 3 hours, control without polyol = 100%, listed as Sorbitol 30%",97* %
same,% enzymatic activity of DispersinB (Mean),"62° C. for 3 hours, control without polyol = 100%, listed as Sorbitol 5%",1* %
same,% enzymatic activity of DispersinB (Mean),"62° C. for 3 hours, control without polyol = 100%, listed as Sorbitol 10%",3* %
same,% enzymatic activity of DispersinB (Mean),"62° C. for 3 hours, control without polyol = 100%, listed as Sorbitol 20%",4* %
same,% enzymatic activity of DispersinB (Mean),"62° C. for 3 hours, control without polyol = 100%, listed as Sorbitol 30%",46* %
